Source: patent publication US10464964B2, “Galactoside inhibitor of galectins” (Galecto Biotech AB, priority 2015, dated 2019)
pKd: −log10 of the molar value. In brackets after ≈: the same amount, converted by molar mass. Where two headings read alike, the source gives them in different places.

Columns and labels:
Galectin 1 = Galectin 1 (Homo sapiens, UniProt P09382); assay: fluorescence anisotropy assay, inhibition of galectin / fluorescein tagged saccharide probe interaction
galectin-3 = galectin-3 (Homo sapiens, UniProt P17931); assay: as above
Chain of galectin-3 (P17931 whole entry): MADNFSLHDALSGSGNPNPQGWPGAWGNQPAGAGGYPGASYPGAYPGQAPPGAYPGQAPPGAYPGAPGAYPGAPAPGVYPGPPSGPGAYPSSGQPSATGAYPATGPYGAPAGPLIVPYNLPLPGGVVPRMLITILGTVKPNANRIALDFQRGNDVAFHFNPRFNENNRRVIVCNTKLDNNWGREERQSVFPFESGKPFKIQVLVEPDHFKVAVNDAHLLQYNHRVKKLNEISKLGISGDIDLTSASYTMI

Solubility = type: physicochemical
galectins = settings: cited from earlier work
[1] = aqueous buffer, 0.1 M phosphate buffer pH 6.5, read-out: Solubility buffer
[2] = water, read-out: Solubility water

Chain of Galectin 1 (P09382 whole entry): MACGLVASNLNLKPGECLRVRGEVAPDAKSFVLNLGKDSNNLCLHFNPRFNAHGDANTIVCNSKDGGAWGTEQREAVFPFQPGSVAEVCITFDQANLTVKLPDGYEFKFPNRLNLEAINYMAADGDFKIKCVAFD

pKd (Galectin 1)	pKd (galectin-3)	solubility (Solubility; [1])	solubility (Solubility; [2])	SMILES	affinity, times lower than lactose (galectins; relative to lactose)	pKd (galectins; all galectins)
6.22	6.88	–	–	Cn1cncc1-c1cn(C2C(O)[C@H](SC3O[C@H](CO)C(O)C(n4cc(-c5cncn5C)nn4)[C@H]3O)OC(CO)[C@@H]2O)nn1 (stereo in doubt) [Example S4c, 3,3′-Dideoxy-3,3′-bis-[4-(1-methyl-1H-imidazol-5-yl)-1H-1,2,3-triazol-1-yl]-1,1′-sulfanediyl-di-β-D-galactopyranoside]	–	–
7.42	8.70	41 µg/mL (≈ 61.4 µM)	–	OCC1O[C@@H](SC2O[C@H](CO)C(O)C(n3cc(-c4cccnc4)nn3)[C@H]2O)C(O)C(n2cc(-c3cc(F)c(F)c(F)c3)nn2)[C@H]1O (stereo in doubt) [Example S8a, 3,3′-3-[4-(pyridin-3-yl)-1H-1,2,3-triazol-1-yl]-3′-[4-(3,4,5-trifluorophenyl)-1H-1,2,3-triazol-1-yl]-1,1′-sulfanediyl-di-β-D-galactopyranoside]	–	–
7.40	> 8.30	–	–	OCC1O[C@@H](SC2O[C@H](CO)C(O)C(n3cc(-c4ccc(F)cn4)nn3)[C@H]2O)C(O)C(n2cc(-c3cc(F)c(F)c(F)c3)nn2)[C@H]1O (stereo in doubt) [Example S7, 3,3′-Dideoxy-3-[4-(5-fluoropyridin-2-yl)-1H-1,2,3-triazol-1-yl]-3′-[4-(3,4,5-trifluorophenyl)-1H-1,2,3-triazol-1-yl]-1,1′-sulfanediyl-di-β-D-galactopyranoside]	–	–
7.68	8.00	2600 µg/mL (≈ 4000 µM)	4300 µg/mL (≈ 6610 µM)	OCC1O[C@@H](SC2O[C@H](CO)C(O)C(n3cc(-c4ccc(F)cn4)nn3)[C@H]2O)C(O)C(n2cc(-c3ccc(F)cn3)nn2)[C@H]1O (stereo in doubt) [Example S4a, 3,3′-Dideoxy-3,3′-bis-[4-(5-fluoro-2-pyridin-2-yl)-1H-1,2,3-triazol-1-yl]-1,1′-sulfanediyl-di-β-D-galactopyranoside]	–	–
7.26	> 8.70	3300 µg/mL (≈ 4810 µM)	–	OCC1O[C@@H](SC2O[C@H](CO)C(O)C(n3cc(-c4ncc(F)cn4)nn3)[C@H]2O)C(O)C(n2cc(-c3cc(F)c(F)c(F)c3)nn2)[C@H]1O (stereo in doubt) [Example S8h, 3,3′-Dideoxy-3-[4-(5-fluoro-1,3-pyrimidin-2-yl)-1H-1,2,3-triazol-1-yl]-3′-[4-(3,4,5-trifluorophenyl)-1H-1,2,3-triazol-1-yl]-1,1′-sulfanediyl-di-β-D-galactopyranoside]	–	–
–	–	–	–	O=C[C@H](O)[C@@H](O)[C@@H](O)[C@H](O)CO [D-galactose]	50-100 times	–
6.83	8.30	770 µg/mL (≈ 1060 µM)	–	CC(=O)Nc1ccc(-c2cn(C3C(O)[C@@H](CO)OC(S[C@@H]4OC(CO)[C@H](O)C(n5cc(-c6cc(F)c(F)c(F)c6)nn5)C4O)[C@@H]3O)nn2)cn1 (stereo in doubt) [Example S8f, 3-[4-((2-acetamid-N-yl)-pyridin-5-yl)-3,3′-dideoxy-1H-1,2,3-triazol-1-yl]-3′-[4-(3,4,5-trifluorophenyl)-1H-1,2,3-triazol-1-yl]-1,1′-sulfanediyl-di-β-D-galactopyranoside]	–	–
–	–	–	400 µg/mL (≈ 617 µM)	OCC1O[C@@H](SC2O[C@H](CO)C(O)C(n3cc(-c4cccc(F)c4)nn3)[C@H]2O)C(O)[C@@H](n2cc(-c3cccc(F)c3)nn2)[C@H]1O (stereo partly drawn) [Ref 1, 3,3′-bis-[4-(3-fluorophenyl)-1H-1,2,3-triazol-1-yl]-1,1′-sulfanediyl-di-β-D-galactopyranoside, reference compound]	–	–
7.15	> 8.70	4600 µg/mL (≈ 6880 µM)	–	OCC1O[C@@H](SC2O[C@H](CO)C(O)C(n3cc(-c4ncccn4)nn3)[C@H]2O)C(O)C(n2cc(-c3cc(F)c(F)c(F)c3)nn2)[C@H]1O (stereo in doubt) [Example S8c, 3,3′-Dideoxy-3-[4-(1,3-pyrimidin-2-yl)-1H-1,2,3-triazol-1-yl]-3′-[4-(3,4,5-trifluorophenyl)-1H-1,2,3-triazol-1-yl]-1,1′-sulfanediyl-di-β-D-galactopyranoside]	–	–
7.10	> 8.70	360 µg/mL (≈ 538 µM)	–	OCC1O[C@@H](SC2O[C@H](CO)C(O)C(n3cc(-c4cncnc4)nn3)[C@H]2O)C(O)C(n2cc(-c3cc(F)c(F)c(F)c3)nn2)[C@H]1O (stereo in doubt) [Example S8b, 3,3′-Dideoxy-3-[4-(1,3-pyrimidin-5-yl)-1H-1,2,3-triazol-1-yl]-3′-[4-(3,4,5-trifluorophenyl)-1H-1,2,3-triazol-1-yl]-1,1′-sulfanediyl-di-β-D-galactopyranoside]	–	–
6.41	7.36	7 µg/mL (≈ 11.4 µM)	–	OCC1O[C@@H](S[C@@H]2O[C@H](CO)C(O)C(n3cc(-c4cncnc4)nn3)[C@H]2O)C(O)[C@@H](n2cc(-c3cncnc3)nn2)[C@H]1O (stereo partly drawn) [Example S4e, 3,3′-Dideoxy-3,3′-bis-[4-(pyrimidin-5-yl)-1H-1,2,3-triazol-1-yl]-1,1′-sulfanediyl-di-β-D-galactopyranoside]	–	–
6.13	7.60	200 µg/mL (≈ 244 µM)	–	OCC1O[C@@H](SC2O[C@H](CO)C(O)C(n3cc(-c4ncc(C(F)(F)F)cc4Cl)nn3)[C@H]2O)C(O)C(n2cc(-c3ncc(C(F)(F)F)cc3Cl)nn2)[C@H]1O (stereo in doubt) [Example S4d, 3,3′-Dideoxy-3,3′-bis-[4-(3-chloro-5-trifluoromethyl-pyridin-2-yl)-1H-1,2,3-triazol-1-yl]-1,1′-sulfanediyl-di-β-D-galactopyranoside]	–	–
6.92	7.92	–	–	COc1ccc(-c2cn(C3C(O)[C@@H](CO)OC(S[C@@H]4OC(CO)[C@H](O)[C@H](n5cc(-c6ccc(OC)nc6)nn5)C4O)[C@@H]3O)nn2)cn1 (stereo partly drawn) [Example S4b, 3,3′-Dideoxy-3,3′-bis-[4-(6-methoxypyridin-3-yl)-1H-1,2,3-triazol-1-yl]-1,1′-sulfanediyl-di-β-D-galactopyranoside]	–	–
7.47	> 8.70	1800 µg/mL (≈ 2640 µM)	–	Nc1ccc(-c2cn(C3C(O)[C@@H](CO)OC(S[C@@H]4OC(CO)[C@H](O)C(n5cc(-c6cc(F)c(F)c(F)c6)nn5)C4O)[C@@H]3O)nn2)cn1 (stereo in doubt) [Example S8g, 3-[4-(2-aminopyridin-5-yl)-3,3′-dideoxy-1H-1,2,3-triazol-1-yl]-3′-[4-(3,4,5-trifluorophenyl)-1H-1,2,3-triazol-1-yl]-1,1′-sulfanediyl-di-β-D-galactopyranoside]	–	–
7.14	9.00	1300 µg/mL (≈ 1950 µM)	–	OCC1O[C@@H](SC2O[C@H](CO)C(O)C(n3cc(-c4ccncc4)nn3)[C@H]2O)C(O)C(n2cc(-c3cc(F)c(F)c(F)c3)nn2)[C@H]1O (stereo in doubt) [Example S8e, 3,3′-Dideoxy-3-[4-(pyridin-4-yl)-1H-1,2,3-triazol-1-yl]-3′-[4-(3,4,5-trifluorophenyl)-1H-1,2,3-triazol-1-yl]-1,1′-sulfanediyl-di-β-D-galactopyranoside]	–	–
6.68	7.38	450 µg/mL (≈ 732 µM)	–	OCC1O[C@@H](SC2O[C@H](CO)C(O)C(n3cc(-c4ccccn4)nn3)[C@H]2O)C(O)C(n2cc(-c3ccccn3)nn2)[C@H]1O (stereo in doubt) [Example S4f, 3,3′-Dideoxy-3,3′-bis-[4-(pyridin-2-yl)-1H-1,2,3-triazol-1-yl]-1,1′-sulfanediyl-di-β-D-galactopyranoside]	–	–
7.42	9.00	1400 µg/mL (≈ 2100 µM)	–	OCC1O[C@@H](SC2O[C@H](CO)C(O)C(n3cc(-c4ccccn4)nn3)[C@H]2O)C(O)C(n2cc(-c3cc(F)c(F)c(F)c3)nn2)[C@H]1O (stereo in doubt) [Example S8d, 3,3′-Dideoxy-3-[4-(pyridin-2-yl)-1H-1,2,3-triazol-1-yl]-3′-[4-(3,4,5-trifluorophenyl)-1H-1,2,3-triazol-1-yl]-1,1′-sulfanediyl-di-β-D-galactopyranoside]	–	–
–	–	–	–	OC[C@H]1O[C@@H](O[C@H]2[C@H](O)[C@@H](O)C(O)O[C@@H]2CO)[C@H](O)[C@@H](O)[C@H]1O (stereo partly shown) [lactose]	–	3.00 to 3.30
